Data set [1] relates to avian influenza virus H7N7. Description: microbe, parasite or virus in culture. In kind it is cell-based. The following applies: H7N7, MDCK; for OD value (A): MTT; for inhibition at 39.06 µg/mL / inhibition at 78.12 µg/mL / inhibition at 156.25 µg/mL / IC50: unidentified influenza virus; for inhibition at 39.06 µg/mL / inhibition at 78.12 µg/mL / inhibition at 156.25 µg/mL: H7N7; for IC50: H7N7 virus, MDCK cells.

The subject of data set [2] is dry yeast induced fever in rats. The experiment in a line: Antipyretic effect, dry yeast induced fever in rats, rectal temperature. In kind it is in vivo, SD rats.
A further data set concerns MDCK cells. The experiment in a line: Toxicity of the tested substance on MDCK cells, MTT method. The conditions noted are these: OD 570 nm, 3 days. A general note: Formazan colour is commonly taken as a measure of viable cells.
The subject of data set [3] is avian influenza virus H9N2. Description: microbe, parasite or virus in culture. In kind it is cell-based. The following applies: H9N2, MDCK; for OD value (A): MTT; for inhibition at 39.06 µg/mL / inhibition at 78.12 µg/mL / inhibition at 156.25 µg/mL / IC50: Influenza A virus; for inhibition at 39.06 µg/mL / inhibition at 78.12 µg/mL / inhibition at 156.25 µg/mL: H9N2; for IC50: H9N2 virus, MDCK cells.

Setting [4] is: 39.06 μg/ml, first of 2 experiments.
Setting [5] is: 39.06 μg/ml, second of 2 experiments.
Where [6] appears, read: 78.12 μg/ml, first of 2 experiments.
The mark [7] stands for this setting: 78.12 μg/ml, second of 2 experiments.
Setting [8] is: 156.25 μg/ml, first of 2 experiments.
Where [9] appears, read: 156.25 μg/ml, second of 2 experiments.

Structures are written as SMILES. Converted amounts (≈) assume the structure as drawn. Structures can show the parent of a compound that is named as a salt.

As usually defined, the inhibition is the drop in the measured response relative to a control, in per cent. A higher inhibition goes with strong suppression. As a reminder, the IC50 is the concentration that gives 50% inhibition. Take `NC12CC3CC(CC(C3)C1)C2` [Adamantanamine, amantadine hydrochloride]: the “OD value (A)” value in data set [1] (setting [4]) is 0.55 ± 0.04 A; in data set [1] (setting [5]), 0.57 ± 0.07 A; in data set [1] (setting [6]), 0.86 ± 0.08 A; in data set [1] (setting [7]), 0.81 ± 0.04 A; in data set [1] (setting [8]) it was 1.01 ± 0.07 A; in data set [1] (setting [9]), 0.98 ± 0.09 A. In addition, the inhibition at 39.06 µg/mL in data set [1] (setting [4]) is 36%; in data set [1] (setting [5]), 38%. Also, the inhibition at 78.12 µg/mL was 60% in data set [1] (setting [6]) and 55% in data set [1] (setting [7]). The figures for the inhibition at 156.25 µg/mL in data set [1] (setting [8]) and in data set [1] (setting [9]) were 71% and 68%, respectively. The results for the IC50 in data set [1] (first of 2 experiments) and in data set [1] (second of 2 experiments) were 62 mg/L and 66 mg/L, respectively.
Regarding `CC(=O)Oc1ccccc1C(=O)O` [Aspirin], the rectal temperature is 37.8 °C in data set [2] (100 mg/kg by gavage 0.5 h and […] after pyrogen, baseline value, 1 h before the injection of pyrogen, n = 5); 38.0 °C in data set [2] (100 mg/kg by gavage, 1 h after the injection of pyrogen); 37.5 °C in data set [2] (100 mg/kg by gavage, 2 h after the injection of pyrogen); 37.7 °C in data set [2] (100 mg/kg by gavage, 3 h after the injection of pyrogen); 37.8 °C in data set [2] (100 mg/kg by gavage, 4 h after the injection of pyrogen); 38.1 °C in data set [2] (100 mg/kg by gavage, 5 h after the injection of pyrogen). Moreover, the rectal temperature amounted to 38.1 °C in data set [2] (100 mg/kg by gavage, 6 h after the injection of pyrogen); 38.3 °C in data set [2] (100 mg/kg by gavage, 7 h after the injection of pyrogen); 38.5 °C in data set [2] (100 mg/kg by gavage, 8 h after the injection of pyrogen); 38.8 °C in data set [2] (100 mg/kg by gavage, 9 h after the injection of pyrogen). Besides, the “time for which the effect of reducing the body temperature was maintained” value in data set [2] (100 mg·kg^−1, starting from […] after the injection of the pyrogen) was determined as 4 h.
As for `NC12CC3CC(CC(C3)C1)C2` [amantadine], the “OD value (A)” value in the data set on MDCK cells (39.06 μg/ml) was found to be 1.20 ± 0.04 A; with MDCK cells (78.12 μg/ml) it was 1.05 ± 0.02 A; in the data set with MDCK cells (156.25 μg/ml) it was 0.96 ± 0.05 A; in data set [3] (setting [4]) it was 0.37 ± 0.02 A; in data set [3] (setting [5]), 0.32 ± 0.03 A; in data set [3] (setting [6]), 0.64 ± 0.05 A. Further, the “OD value (A)” value in data set [3] (setting [7]) is 0.46 ± 0.03 A; in data set [3] (setting [8]), 0.71 ± 0.07 A; in data set [3] (setting [9]), 0.68 ± 0.15 A. Besides, the inhibition at 39.06 µg/mL was determined as 34% in data set [3] (setting [4]) and 27% in data set [3] (setting [5]). In addition, the figures for the inhibition at 78.12 µg/mL in data set [3] (setting [6]) and in data set [3] (setting [7]) were 65% and 42%, respectively. Further, the results for the inhibition at 156.25 µg/mL in data set [3] (setting [8]) and in data set [3] (setting [9]) were 72% and 66%, respectively. For the same compound, the half-maximal inhibitory concentration (IC50) worked out at 63 mg/L (≈ 417 µM) in data set [3] (first of 2 experiments) and 66 mg/L (≈ 436 µM) in data set [3] (second of 2 experiments).

The values above are taken from patent US11235015B2, “Antiviral Traditional Chinese Medicine composition and preparation method and use i'hereof” (priority 2017, dated 2022).
